From patent publication US11834453B2, “Substituted pyrimido[5,4-d]pyrimidines as HER2 inhibitors” (Array BioPharma Inc., priority 2020, dated 2023) come the findings set out here.

The term IC50 denotes the concentration that gives 50% inhibition. As usually defined, the efflux ratio is a quotient of directional permeabilities that is used to spot active efflux.

One data set deals with EGFR wild type (EGFR WT) (Homo sapiens (Human), UniProt P00533). Briefly: Cellular phosphorylation assay, EGF-stimulated EGFR phosphorylation in engineered NIH 3T3 cells, Phospho-EGFR DuoSet IC ELISA, Assay 5. The class given is cell-based. A digest of the protocol:
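NIH 3T3 cells expressing EGFR WT (20,000/well, attached overnight) were exposed to serially diluted compound for 1 h at 37 °C, then stimulated with 100 ng/ml rEGF for 10 min. Phospho-EGFR in lysates measured by sandwich ELISA optical density; IC50 from curves.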

A further data set has as its target MDR1 (P-gp) (Homo sapiens (Human), UniProt P08183). Briefly: MDR1 transfected MDCKII canine Mdr1 knockout permeability/efflux, Assay 7. The settings on record: dog, MDCK-MDR1.
For the next data set, the target named is BCRP (Homo sapiens (Human), UniProt Q9UNQ0). Briefly: BCRP transfected MDCKII canine Mdr1 knockout permeability/efflux, Assay 9. As to conditions: dog.
The target of the next data set is EGFR (Homo sapiens (Human), UniProt P00533). The data set can be described thus: ErbB enzyme assay (CisBio HTRF KinEASE-TK), Assay 3. The class given is biochemical. Put shortly:
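Kinase + 250 nM biotin TK-substrate, 1 mM ATP, cpd (3-fold dil.), HEPES pH 7.4/10 mM MgCl2/0.01% Triton/2% DMSO; 30 min 22 °C. Quench w/ Sa-XL665 + TK-Ab-Cryptate, 1 h, HTRF. IC50 = 50 POC on 4PL fit.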
In general terms: TR-FRET usually uses a lanthanide donor and a delayed reading to cut background.

The next data set deals with ErbB2 WT (Homo sapiens (Human), UniProt P04626). Briefly: ErbB enzyme assay (CisBio HTRF KinEASE-TK), Assay 2. The class given is biochemical. A digest of the protocol: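 ErbB2 phosphorylates 250 nM biotin-TK substrate at 1 mM ATP in 25 mM HEPES pH 7.4, 10 mM MgCl2, 0.01% Triton X-100 and 2% DMSO, for 30 min at 22 °C. Product is detected by HTRF with Sa-XL665 and TK-Ab-Cryptate. Percent of control is set by DMSO-only wells and pre-quenched wells.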
Sequence of ErbB2 WT (P04626 23-1255): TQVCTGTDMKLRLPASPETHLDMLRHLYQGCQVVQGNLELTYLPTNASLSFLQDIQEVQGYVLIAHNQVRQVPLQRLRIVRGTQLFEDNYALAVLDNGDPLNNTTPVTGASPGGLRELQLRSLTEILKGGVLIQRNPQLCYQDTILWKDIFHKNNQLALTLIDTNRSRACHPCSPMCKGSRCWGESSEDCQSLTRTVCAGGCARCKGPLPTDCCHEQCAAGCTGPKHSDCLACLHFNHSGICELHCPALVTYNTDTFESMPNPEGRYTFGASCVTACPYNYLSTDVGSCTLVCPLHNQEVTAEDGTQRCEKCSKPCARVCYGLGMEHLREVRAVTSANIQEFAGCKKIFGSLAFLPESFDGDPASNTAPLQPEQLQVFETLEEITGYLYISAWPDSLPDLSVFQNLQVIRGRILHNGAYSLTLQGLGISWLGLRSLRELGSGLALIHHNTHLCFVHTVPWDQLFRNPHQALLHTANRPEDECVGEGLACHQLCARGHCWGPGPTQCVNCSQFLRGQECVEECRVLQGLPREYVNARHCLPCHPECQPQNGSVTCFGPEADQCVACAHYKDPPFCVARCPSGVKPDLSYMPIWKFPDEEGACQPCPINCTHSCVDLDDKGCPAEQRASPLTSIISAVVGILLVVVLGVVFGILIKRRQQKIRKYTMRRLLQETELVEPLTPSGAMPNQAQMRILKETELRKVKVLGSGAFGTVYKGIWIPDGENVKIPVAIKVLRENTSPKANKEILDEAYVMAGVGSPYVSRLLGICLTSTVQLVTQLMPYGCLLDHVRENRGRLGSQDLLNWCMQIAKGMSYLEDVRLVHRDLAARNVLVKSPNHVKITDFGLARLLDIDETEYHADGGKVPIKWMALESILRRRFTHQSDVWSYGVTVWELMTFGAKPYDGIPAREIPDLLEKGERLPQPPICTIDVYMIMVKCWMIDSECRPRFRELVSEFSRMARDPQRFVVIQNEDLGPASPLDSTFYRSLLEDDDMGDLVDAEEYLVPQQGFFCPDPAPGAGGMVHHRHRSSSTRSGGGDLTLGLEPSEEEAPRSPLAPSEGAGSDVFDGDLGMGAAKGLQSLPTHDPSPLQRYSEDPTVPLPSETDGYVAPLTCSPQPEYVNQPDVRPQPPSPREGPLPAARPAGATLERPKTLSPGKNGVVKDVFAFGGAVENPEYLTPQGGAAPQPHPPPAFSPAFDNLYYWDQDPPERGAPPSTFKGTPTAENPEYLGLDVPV

In data set [1] the target is ErbB2 insYVMA (HER2-YVMA, SEQ ID NO: 2) (Homo sapiens, UniProt P04626, INS775YVMA/P1170A). Briefly: biochemical. The settings on record: ErbB2 insYVMA enzyme assay; read-out: Assay 1 IC50.
Sequence of ErbB2 insYVMA (HER2-YVMA, SEQ ID NO: 2) (P04626 with tags, fused parts or gaps INS775YVMA/P1170A limits assumed): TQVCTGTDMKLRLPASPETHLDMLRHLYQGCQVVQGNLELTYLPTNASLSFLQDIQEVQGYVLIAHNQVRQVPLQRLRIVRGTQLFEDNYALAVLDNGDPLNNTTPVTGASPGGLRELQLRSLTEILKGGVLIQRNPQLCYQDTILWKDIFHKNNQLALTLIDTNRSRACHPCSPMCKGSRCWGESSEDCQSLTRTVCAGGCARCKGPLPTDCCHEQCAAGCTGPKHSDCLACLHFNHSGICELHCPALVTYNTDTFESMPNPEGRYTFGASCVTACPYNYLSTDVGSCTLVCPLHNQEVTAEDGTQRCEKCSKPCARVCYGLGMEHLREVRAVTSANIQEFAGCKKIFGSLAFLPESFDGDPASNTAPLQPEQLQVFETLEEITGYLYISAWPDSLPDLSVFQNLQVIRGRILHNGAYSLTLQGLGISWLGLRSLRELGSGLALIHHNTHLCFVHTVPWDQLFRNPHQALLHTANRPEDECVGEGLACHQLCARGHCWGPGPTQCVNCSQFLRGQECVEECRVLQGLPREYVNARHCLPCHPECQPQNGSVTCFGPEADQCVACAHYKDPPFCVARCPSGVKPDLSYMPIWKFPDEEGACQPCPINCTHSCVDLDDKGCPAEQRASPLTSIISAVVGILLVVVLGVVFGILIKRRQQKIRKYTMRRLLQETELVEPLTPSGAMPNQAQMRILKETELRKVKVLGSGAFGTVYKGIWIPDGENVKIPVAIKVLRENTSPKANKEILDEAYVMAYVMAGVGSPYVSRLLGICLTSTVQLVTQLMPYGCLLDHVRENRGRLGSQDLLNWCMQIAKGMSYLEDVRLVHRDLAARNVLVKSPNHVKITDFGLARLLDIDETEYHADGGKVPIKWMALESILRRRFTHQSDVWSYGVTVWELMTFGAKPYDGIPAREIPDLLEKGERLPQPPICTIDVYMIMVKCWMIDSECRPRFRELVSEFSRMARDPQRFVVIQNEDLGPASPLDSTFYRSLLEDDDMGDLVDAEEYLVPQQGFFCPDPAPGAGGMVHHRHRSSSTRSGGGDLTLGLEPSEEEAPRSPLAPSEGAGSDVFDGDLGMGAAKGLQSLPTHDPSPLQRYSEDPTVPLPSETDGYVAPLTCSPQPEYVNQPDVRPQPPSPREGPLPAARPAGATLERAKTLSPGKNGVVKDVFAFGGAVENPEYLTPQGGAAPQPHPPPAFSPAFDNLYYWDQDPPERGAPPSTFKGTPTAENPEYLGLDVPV
Data set [2] has as its target ErbB2 with Exon 20 YVMA insertion (HER2-YVMA) (Homo sapiens (Human), UniProt P04626, INS775YVMA). The data set can be described thus: Cellular phosphorylation assay, constitutive ErbB2 phosphorylation (Y1196) in engineered NIH 3T3 cells, Assay 4. The class given is cell-based. A digest of the protocol: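 Engineered NIH 3T3 cells expressing HER2-YVMA treated with compounds 1 h at 37 °C, then formaldehyde-fixed and methanol-permeabilized. pErbB2 Y1196 detected by in-cell infrared immunofluorescence, normalized to GAPDH. IC50 from the normalized curves.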

The mark [3] stands for this setting: Assay 9 Pe Ratio, efflux ratio Papp(B-A)/Papp(A-B), BCRP transfected MDCKII canine Mdr1 knockout.

Sequence of MDR1 (P-gp) (P08183 whole entry): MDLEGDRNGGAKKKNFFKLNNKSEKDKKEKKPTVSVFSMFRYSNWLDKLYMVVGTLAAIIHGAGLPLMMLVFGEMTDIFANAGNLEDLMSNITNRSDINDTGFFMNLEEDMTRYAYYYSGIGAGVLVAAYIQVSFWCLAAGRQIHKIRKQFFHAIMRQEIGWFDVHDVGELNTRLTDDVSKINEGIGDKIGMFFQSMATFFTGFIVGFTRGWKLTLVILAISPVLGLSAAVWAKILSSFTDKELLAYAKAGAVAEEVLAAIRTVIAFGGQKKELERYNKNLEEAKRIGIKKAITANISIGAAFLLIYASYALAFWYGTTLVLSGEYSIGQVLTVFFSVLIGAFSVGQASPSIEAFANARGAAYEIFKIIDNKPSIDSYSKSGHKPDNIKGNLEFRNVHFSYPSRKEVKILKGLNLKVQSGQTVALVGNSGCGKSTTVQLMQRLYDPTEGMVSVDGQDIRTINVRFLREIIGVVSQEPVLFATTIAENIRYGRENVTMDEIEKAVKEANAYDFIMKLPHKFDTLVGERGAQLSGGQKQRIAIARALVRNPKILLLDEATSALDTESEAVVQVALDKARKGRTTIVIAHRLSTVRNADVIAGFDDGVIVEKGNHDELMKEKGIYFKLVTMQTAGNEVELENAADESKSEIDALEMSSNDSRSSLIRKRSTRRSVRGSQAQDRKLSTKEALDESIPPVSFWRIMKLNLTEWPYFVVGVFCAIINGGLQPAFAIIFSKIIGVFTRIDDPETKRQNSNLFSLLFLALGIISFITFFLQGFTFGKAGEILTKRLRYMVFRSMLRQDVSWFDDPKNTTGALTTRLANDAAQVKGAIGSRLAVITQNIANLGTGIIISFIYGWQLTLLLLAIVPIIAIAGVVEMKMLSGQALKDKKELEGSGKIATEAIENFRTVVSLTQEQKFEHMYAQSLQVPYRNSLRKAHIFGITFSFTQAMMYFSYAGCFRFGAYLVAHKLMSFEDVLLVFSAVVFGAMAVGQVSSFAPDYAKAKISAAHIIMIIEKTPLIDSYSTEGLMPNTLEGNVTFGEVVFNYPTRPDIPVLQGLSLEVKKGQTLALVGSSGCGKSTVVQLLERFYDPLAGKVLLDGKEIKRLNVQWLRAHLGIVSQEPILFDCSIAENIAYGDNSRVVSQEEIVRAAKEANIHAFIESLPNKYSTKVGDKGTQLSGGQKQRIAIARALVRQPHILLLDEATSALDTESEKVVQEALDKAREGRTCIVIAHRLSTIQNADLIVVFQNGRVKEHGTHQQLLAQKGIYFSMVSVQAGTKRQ
Sequence of ErbB2 with Exon 20 YVMA insertion (HER2-YVMA) (P04626 other isoform, or with tags, fused parts or gaps ins YVMA behind 775): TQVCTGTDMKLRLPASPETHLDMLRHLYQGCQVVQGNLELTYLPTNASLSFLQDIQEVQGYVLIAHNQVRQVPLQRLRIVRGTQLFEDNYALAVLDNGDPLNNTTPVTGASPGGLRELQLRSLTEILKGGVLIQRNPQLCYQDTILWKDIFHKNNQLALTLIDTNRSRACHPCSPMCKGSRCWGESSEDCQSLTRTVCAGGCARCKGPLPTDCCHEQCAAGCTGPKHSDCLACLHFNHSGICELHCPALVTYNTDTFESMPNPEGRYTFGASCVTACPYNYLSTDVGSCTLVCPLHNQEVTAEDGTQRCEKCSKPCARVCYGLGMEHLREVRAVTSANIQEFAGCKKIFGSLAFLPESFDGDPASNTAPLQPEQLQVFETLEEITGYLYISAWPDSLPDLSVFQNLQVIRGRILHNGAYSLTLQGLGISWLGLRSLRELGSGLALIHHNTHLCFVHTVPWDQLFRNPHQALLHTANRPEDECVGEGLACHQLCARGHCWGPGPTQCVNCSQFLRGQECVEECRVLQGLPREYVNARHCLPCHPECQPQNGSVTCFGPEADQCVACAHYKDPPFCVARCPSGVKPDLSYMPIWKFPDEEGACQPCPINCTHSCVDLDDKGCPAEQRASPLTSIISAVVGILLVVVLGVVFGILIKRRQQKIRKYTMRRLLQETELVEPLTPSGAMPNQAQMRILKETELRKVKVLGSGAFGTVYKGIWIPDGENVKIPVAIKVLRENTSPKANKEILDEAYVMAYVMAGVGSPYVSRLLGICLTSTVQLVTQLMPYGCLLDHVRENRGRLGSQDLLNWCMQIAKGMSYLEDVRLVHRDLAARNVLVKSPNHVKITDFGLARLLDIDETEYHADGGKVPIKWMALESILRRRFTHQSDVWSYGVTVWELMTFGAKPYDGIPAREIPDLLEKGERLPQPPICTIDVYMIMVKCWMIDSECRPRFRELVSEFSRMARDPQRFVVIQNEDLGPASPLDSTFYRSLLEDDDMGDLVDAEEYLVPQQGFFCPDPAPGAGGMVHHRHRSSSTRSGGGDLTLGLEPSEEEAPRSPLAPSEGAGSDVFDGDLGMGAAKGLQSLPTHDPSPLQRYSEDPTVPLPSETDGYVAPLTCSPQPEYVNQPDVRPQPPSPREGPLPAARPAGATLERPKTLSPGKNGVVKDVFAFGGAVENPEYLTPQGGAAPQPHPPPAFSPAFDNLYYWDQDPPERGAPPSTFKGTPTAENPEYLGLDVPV

For `COC[C@H](O)CN(C)c1ncc2ncnc(Nc3ccc(Oc4ccc5c(c4)ncn5C)c(C)c3)c2n1` (racemic) [Example 100, rac-(R)-1-methoxy-3-(methyl(8-((3-methyl-4-((1-methyl-1H-benzo[d]imidazol-5-yl)oxy)phenyl)amino)pyrimido[5,4-d]pyrimidin-2-yl)amino)propan-2-ol], the IC50 against EGFR wild type (EGFR WT) was at least 5 µM; at EGFR, 4.15 µM; on ErbB2 WT it was 0.0318 µM; in data set [1], 0.0288 µM; in data set [2], 0.0211 µM. For the same compound, the results for the efflux ratio at 2 h, 1 μM on MDR1 (P-gp) and on BCRP (setting [3]) were 1.5 and 18.2, respectively.
For `Cc1cc(Nc2ncnc3cnc(N4CC[C@@](O)(C(F)F)C4)nc23)ccc1Oc1ccc2c(c1)ncn2C` (racemic) [Example 106, rac-(R)-3-(difluoromethyl)-1-(8-((3-methyl-4-((1-methyl-1H-benzo[d]imidazol-5-yl)oxy)phenyl)amino)pyrimido[5,4-d]pyrimidin-2-yl)pyrrolidin-3-ol], the IC50 was at least 5 µM against EGFR wild type (EGFR WT); 2.84 µM against EGFR; 0.0166 µM against ErbB2 WT; 0.0168 µM in data set [1]; 0.0184 µM in data set [2]. The efflux ratio at 2 h, 1 μM worked out at 2.6 on MDR1 (P-gp) and 24.3 on BCRP (setting [3]).
With `Cc1cc(Nc2ncnc3cnc(N4CC[C@@]45CCOC5)nc23)ccc1Oc1ccc2c(c1)ncn2C` (single isomer, unassigned) [Example 93a], the IC50 is at least 5 µM against EGFR wild type (EGFR WT); 1.46 µM on EGFR; 0.016 µM against ErbB2 WT; 0.017 µM in data set [1]; 0.0206 µM in data set [2]. Besides, the efflux ratio at 2 h, 1 μM on MDR1 (P-gp) was 1.3; on BCRP it was 1.9.
Consider `Cc1cc(Nc2ncnc3cnc(N4C[C@@H](F)[C@@H](O)C4)nc23)ccc1Oc1ccc2c(c1)ncn2C` [Example 91, (3S,4R)-4-fluoro-1-(8-((3-methyl-4-((1-methyl-1H-benzo[d]imidazol-5-yl)oxy)phenyl)amino)pyrimido[5,4-d]pyrimidin-2-yl)pyrrolidin-3-ol], for which the IC50 against EGFR wild type (EGFR WT) is at least 5 µM; at EGFR, 6.83 µM; against ErbB2 WT, 0.0206 µM; in data set [1], 0.0128 µM; in data set [2] it was 0.0141 µM. In addition, the results for the efflux ratio at 2 h, 1 μM at MDR1 (P-gp) and at BCRP (setting [3]) were 2.5 and 50.1, respectively.
On to `Cc1cc(Nc2ncnc3cnc(N4CC[C@@](C)(O)C4)nc23)ccc1Oc1ccn2ncnc2c1` [Example 110, (R)-1-(8-((4-([1,2,4]triazolo[1,5-a]pyridin-7-yloxy)-3-methylphenyl)amino)pyrimido[5,4-d]pyrimidin-2-yl)-3-methylpyrrolidin-3-ol], for which the IC50 against EGFR wild type (EGFR WT) is at least 5 µM; against EGFR, 3.17 µM; against ErbB2 WT it was 0.0328 µM; in data set [1] it was 0.0335 µM; in data set [2], 0.0617 µM. Moreover, the efflux ratio at 2 h, 1 μM at MDR1 (P-gp) was 1.9; on BCRP (setting [3]), 32.2.
Turning to `Cc1cc(Nc2ncnc3cnc(N4CC[C@@H](C(C)(C)O)C4)nc23)ccc1Oc1ccc2c(c1)ncn2C` [Example 113, (R)-2-(1-(8-((3-methyl-4-((1-methyl-1H-benzo[d]imidazol-5-yl)oxy)phenyl)amino)pyrimido[5,4-d]pyrimidin-2-yl)pyrrolidin-3-yl)propan-2-ol], the IC50 against EGFR wild type (EGFR WT) was at least 5 µM; at EGFR, 8.48 µM; against ErbB2 WT, 0.023 µM; in data set [1] it was 0.0131 µM; in data set [2] it was 0.0095 µM. In addition, the efflux ratio at 2 h, 1 μM at MDR1 (P-gp) was determined as 0.9; on BCRP (setting [3]), 11.
For the compound `Cn1cnc2cc(Oc3ccc(Nc4ncnc5cnc(N6CCC7COCC76)nc45)cc3Cl)ccc21` (stereo not drawn) [Example 114, N-(3-chloro-4-((1-methyl-1H-benzo[d]imidazol-5-yl)oxy)phenyl)-6-(hexahydro-1H-furo[3,4-b]pyrrol-1-yl)pyrimido[5,4-d]pyrimidin-4-amine], the IC50 is at least 5 µM on EGFR wild type (EGFR WT); 7.89 µM at EGFR; 0.0963 µM at ErbB2 WT; 0.0501 µM in data set [1]; 0.0201 µM in data set [2]. The efflux ratio at 2 h, 1 μM was determined as 1.5 on MDR1 (P-gp) and 1.2 on BCRP (setting [3]).
On to `Cc1c(Oc2ccc3c(c2)ncn3C)ccc(Nc2ncnc3cnc(N(C)[C@H]4C[C@@](C)(O)C4)nc23)c1F` [Example 116, (1s,3s)-3-((8-((2-fluoro-3-methyl-4-((1-methyl-1H-benzo[d]imidazol-5-yl)oxy)phenyl)amino)pyrimido[5,4-d]pyrimidin-2-yl)(methyl)amino)-1-methylcyclobutan-1-ol], for which the IC50 against EGFR wild type (EGFR WT) is at least 5 µM; against EGFR it was 1.17 µM; against ErbB2 WT, 0.0148 µM; in data set [1] it was 0.0173 µM; in data set [2], 0.0278 µM. Moreover, the efflux ratio at 2 h, 1 μM at MDR1 (P-gp) was 1.3; at BCRP (setting [3]), 1.8.
For `Cc1cc(Nc2ncnc3cnc(N4CCC(C)(O)CC4)nc23)ccc1Oc1ccn2ncnc2c1` [Example 120, 1-(8-((4-([1,2,4]triazolo[1,5-a]pyridin-7-yloxy)-3-methylphenyl)amino)pyrimido[5,4-d]pyrimidin-2-yl)-4-methylpiperidin-4-ol], the IC50 at EGFR wild type (EGFR WT) was at least 5 µM; at EGFR, 5.34 µM; at ErbB2 WT, 0.019 µM; in data set [1] it was 0.0206 µM; in data set [2], 0.0494 µM. For the same compound, the efflux ratio at 2 h, 1 μM at MDR1 (P-gp) was 1.3; at BCRP (setting [3]), 7.8.
Turning to `Cn1cnc2cc(Oc3ccc(Nc4ncnc5cnc(N6CC[C@@H](CC#N)C6)nc45)cc3Cl)ccc21` [Example 134, (S)-2-(1-(8-((3-chloro-4-((1-methyl-1H-benzo[d]imidazol-5-yl)oxy)phenyl)amino)pyrimido[5,4-d]pyrimidin-2-yl)pyrrolidin-3-yl)acetonitrile], the IC50 against EGFR wild type (EGFR WT) was at least 5 µM; against EGFR, at least 10 µM; in data set [1] it was 0.0551 µM; in data set [2], 0.0085 µM. Besides, the efflux ratio at 2 h, 1 μM at MDR1 (P-gp) turned out to be 1.8; on BCRP (setting [3]) it was 6.8.
Consider `Cc1cc(Nc2ncnc3cnc(NCC4(O)COC4)nc23)ccc1Oc1ccc2c(c1)ncn2C` [Example 319], for which the IC50 at EGFR wild type (EGFR WT) was at least 5 µM; on EGFR, 0.87 µM; against ErbB2 WT, 0.0045 µM; in data set [1], 0.0167 µM; in data set [2], 0.0263 µM. For the same compound, on MDR1 (P-gp), the efflux ratio at 2 h, 1 μM is 10.6.
As for `CN(c1ncc2ncnc(Nc3ccc(Oc4ccn5ncnc5c4)c(Cl)c3)c2n1)[C@H]1CCCOC1` [Example 360], the 50% inhibitory concentration (IC50) on EGFR wild type (EGFR WT) is at least 5 µM; on EGFR, at least 10 µM; against ErbB2 WT, 0.0255 µM; in data set [1], 0.0249 µM; in data set [2], 0.0298 µM. In addition, on MDR1 (P-gp), the efflux ratio at 2 h, 1 μM was 1.3.
With `CC1(O)CCN(c2ncc3ncnc(Nc4ccc(Oc5ccn6ncnc6c5)c(Cl)c4)c3n2)CC1` [Example 435], the IC50 was at least 5 µM at EGFR wild type (EGFR WT); 4.91 µM at EGFR; 0.0328 µM against ErbB2 WT; 0.0118 µM in data set [1]; 0.0347 µM in data set [2]. At MDR1 (P-gp), the efflux ratio at 2 h, 1 μM was determined as 1.2.
Regarding `Cc1cc(Nc2ncnc3cnc(N4CC[C@H](CC#N)C4)nc23)ccc1Oc1ccc2c(c1)ncn2C` [Example 469], the IC50 against EGFR wild type (EGFR WT) was at least 5 µM; at EGFR it was at least 10 µM; against ErbB2 WT, 0.0448 µM; in data set [1] it was 0.0191 µM; in data set [2] it was 0.0131 µM. At MDR1 (P-gp), the efflux ratio at 2 h, 1 μM amounted to 1.6.
`Cc1cc(Nc2ncnc3cnc(N4C[C@@H]5C[C@H]4C[C@@H]5O)nc23)ccc1Oc1ccc2c(c1)ncn2C` [Example 470]: the IC50 on EGFR wild type (EGFR WT) was at least 5 µM; against EGFR, 6.84 µM; on ErbB2 WT, 0.0523 µM; in data set [1], 0.0383 µM; in data set [2], 0.0243 µM. Moreover, the efflux ratio at 2 h, 1 μM at MDR1 (P-gp) was determined as 2.5.
As to `Cn1cnc2cc(Oc3ccc(Nc4ncnc5cnc(N6CCN(C7COC7)CC6)nc45)cc3Cl)ccc21` [Example 485], the IC50 was at least 5 µM against EGFR wild type (EGFR WT); at least 10 µM at EGFR; 0.0772 µM on ErbB2 WT; 0.0217 µM in data set [1]; 0.0111 µM in data set [2]. The efflux ratio at 2 h, 1 μM at MDR1 (P-gp) came out at 1.3.
